# In ChEMBL document CHEMBL5331122, “Structure-Activity Relationship Study of Antimicrobial Peptide PE2 Delivered Novel Linear Derivatives with Potential of Eradicating Biofilms and Low Incidence of Drug Resistance” (J Med Chem, 2023):
# Active and inactive are the calls of the source. The calls are words filed in the database; no cut-off is given here.
# Experiments:
# [1] = test system: Cell membrane; assay: Induction of cell membrane damage in Staphylococcus aureus ATCC 25923 at 2 times MIC measured at 30 mins by propidium iodide staining based flow cytometer assay; type: subcellular
# [2] = test system: Staphylococcus aureus; assay: Antibacterial activity against Staphylococcus aureus ATCC 25923 assessed as fold increase in MIC in presence of MgCl2; type: functional
# [3] = test system: Staphylococcus aureus; assay: Antibacterial activity against Staphylococcus aureus ATCC 25923 assessed as fold increase in MIC in presence of NaCl; type: functional
# [4] = test system: Staphylococcus aureus; assay: Induction of drug resistance against Staphylococcus aureus ATCC 25923 measured upto 15 passages by sequential passaging method; type: functional
# [5] = Cytotoxicity against human HEK293T cells assessed as inhibition of cell growth incubated for 24 hrs by resazurin dye based analysis; type: toxicity, HEK-293T
# [6] = test system: Escherichia coli; assay: Bactericidal activity against Escherichia coli ATCC 25922 assessed as inhibition of bacterial growth at 2 times MIC measured upto 360 mins by time-kill assay; type: functional, organism-based
# [7] = test system: Staphylococcus aureus; assay: Bactericidal activity against Staphylococcus aureus ATCC 25923 assessed as inhibition of bacterial growth at 0.5 to 2 times MIC by time-kill assay; type: functional, organism-based; settings: time <= 360.0 min, TDE = time-dependent effect
# [8] = test system: Staphylococcus aureus; assay: Bactericidal activity against Staphylococcus aureus ATCC 25923 assessed as inhibition of bacterial growth at 0.5 to 2 times MIC measured at 120 mins by time-kill assay; type: functional, organism-based
# [9] = test system: Escherichia coli; assay: Bactericidal activity against Escherichia coli ATCC 25922 assessed as inhibition of bacterial growth incubated upto 360 mins by time-kill assay; type: functional, organism-based
# [10] = test system: Staphylococcus aureus; assay: Additive antibacterial activity against gentamycin-resistant Staphylococcus aureus ATCC 25923 incubated for 18 hrs in presence of gentamycin by checkerboard assay; type: functional, organism-based
# [11] = test system: Escherichia coli; assay: Antibacterial activity against Escherichia coli ATCC 25922 assessed as bacterial growth inhibition incubated for 18 hrs by broth microdilution method; type: functional
# [12] = test system: Cell membrane; assay: Induction of outer membrane permeabilization in Escherichia coli ATCC 25922 assessed as increase in fluorescence intensity at 4 times MIC measured for 12 hrs by NPN uptake assay; type: subcellular
# [13] = test system: Escherichia coli; assay: Antibacterial activity against Escherichia coli ATCC 25922 assessed as fold increase in MIC in presence of KCl; type: functional
# [14] = test system: Escherichia coli; assay: Antimicrobial activity against Escherichia coli ATCC 25922 assessed as reduction in survival bacterial growth in presence of trypsin measured after 6 hrs; type: functional, organism-based
# [15] = test system: Staphylococcus aureus; assay: Additive antibacterial activity against Staphylococcus aureus ATCC 25923 assessed as bacterial growth inhibition incubated for 18 hrs in presence of rifampicin by checkerboard assay; type: functional, organism-based
# [16] = test system: Staphylococcus aureus; assay: Induction of membrane morphological changes in Staphylococcus aureus ATCC 25923 assessed as appearance of blistered bacterial cells at 4 times MIC measured at 0.5 to 2 hrs by SEM analysis; type: functional, organism-based; settings: time 0.5-2 hrs
# [17] = test system: Escherichia coli; assay: Inhibition of biofilm formation in Escherichia coli ATCC 25922 assessed as inhibition of biofilm formation incubated for 24 hrs by crystal violet staining based analysis; type: functional, organism-based
# [18] = test system: Bacillus subtilis; assay: Antibacterial activity against Bacillus subtilis ATCC 23857 assessed as bacterial growth inhibition incubated for 18 hrs by broth microdilution method; type: functional
# [19] = test system: Staphylococcus aureus; assay: Antibiofilm activity against Staphylococcus aureus ATCC 25923 assessed as biofilm eradication at 1 times MIC incubated for 24 hrs; type: functional, organism-based
# [20] = test system: Escherichia coli; assay: Additive antibacterial activity against Escherichia coli ATCC 25922 assessed as bacterial growth inhibition incubated for 18 hrs in presence of gentamycin by checkerboard assay; type: functional, organism-based
# [21] = test system: Staphylococcus aureus; assay: Inhibition of biofilm formation in Staphylococcus aureus ATCC 25923 assessed as inhibition of biofilm formation at 1/4 times MIC incubated for 24 hrs by crystal violet staining based analysis; type: functional, organism-based
# [22] = test system: Escherichia coli; assay: Antimicrobial activity against Escherichia coli ATCC 25922 assessed as reduction in microbial growth measured for 18 hrs in presence of 64 microg/ml LPS; type: functional, organism-based
# [23] = test system: Staphylococcus aureus; assay: Induction of membrane morphological changes in Staphylococcus aureus ATCC 25923 at 4 times MIC measured at 0.5 to 2 hrs by SEM analysis; type: functional, organism-based; settings: time 0.5-2 hrs
# [24] = test system: Staphylococcus aureus; assay: Induction of membrane morphological changes in Staphylococcus aureus ATCC 25923 assessed as appearance of broken bacterial cells at 4 times MIC measured at 0.5 to 2 hrs by SEM analysis; type: functional, organism-based; settings: time 0.5-2 hrs
# [25] = test system: Escherichia coli; assay: Additive antibacterial activity against Escherichia coli ATCC 25922 assessed as bacterial growth inhibition incubated for 18 hrs in presence of rifampicin by checkerboard assay; type: functional, organism-based
# [26] = test system: Staphylococcus aureus; assay: Additive antibacterial activity against Staphylococcus aureus ATCC 25923 assessed as bacterial growth inhibition incubated for 18 hrs in presence of gentamycin by checkerboard assay; type: functional, organism-based
# [27] = test system: Escherichia coli; assay: Additive antibacterial activity against rifampicin-resistant Escherichia coli ATCC 25922 incubated for 18 hrs by checkerboard assay; type: functional, organism-based
# [28] = Acute toxicity in Kunming mouse assessed as survival rate at 20 mg/kg, ip measured for 7 days; type: organism-based; settings: in vivo, 168 h, time 7 day
# [29] = test system: Escherichia coli; assay: Bactericidal activity against Escherichia coli ATCC 25922 assessed as inhibition of bacterial growth at 0.5 to 2 times MIC measured at 120 mins by time-kill assay; type: functional, organism-based
# [30] = test system: Klebsiella pneumoniae; assay: Antibacterial activity against Klebsiella pneumoniae ATCC 700603 infected in BALB/c mouse pneumonia model assessed as reduction in infiltration of inflammatory cells at 5 to 10 mg/kg, ip measured at 4 to 12 hrs by hematoxylin and eosin staining based analysis; type: functional, organism-based; settings: dose 5-10 mg/kg, time 4-12 hrs
# [31] = test system: Escherichia coli; assay: Additive antibacterial activity against gentamycin-resistant Escherichia coli ATCC 25922 incubated for 18 hrs by checkerboard assay; type: functional, organism-based
# [32] = test system: Staphylococcus aureus; assay: Antibacterial activity against rifampicin-resistant Staphylococcus aureus ATCC 25923 assessed as reduction in bacterial growth incubated for 18 hrs by broth microdilution method; type: functional
# [33] = test system: Erythrocyte; assay: Hemolytic activity in mouse red blood cell assessed as hemolysis incubated for 1 hr; type: toxicity, cell-based; settings: dose 4-256 µg/ml
# [34] = test system: Staphylococcus aureus; assay: Antibacterial activity against gentamycin-resistant Staphylococcus aureus ATCC 25923 assessed as reduction in bacterial growth incubated for 18 hrs by broth microdilution method; type: functional
# [35] = test system: Escherichia coli; assay: Antibacterial activity against rifampicin-resistant Escherichia coli ATCC 25922 assessed as reduction in bacterial growth incubated for 18 hrs by broth microdilution method; type: functional
# [36] = Acute toxicity in ip dosed Kunming mouse assessed as lethal dose measured upto 7 days; type: organism-based; settings: in vivo, time < 7 day; for LD50 at 168 h: Kunming
# [37] = test system: Klebsiella pneumoniae; assay: Antibacterial activity against Klebsiella pneumoniae ATCC 700603 infected in BALB/c mouse pneumonia model assessed as alveolar expansion at 5 to 10 mg/kg, ip measured at 4 to 12 hrs by hematoxylin and eosin staining based analysis; type: functional, organism-based; settings: dose 5-10 mg/kg, time 4-12 hrs
# [38] = test system: Klebsiella pneumoniae; assay: Antibacterial activity against Klebsiella pneumoniae ATCC 700603 infected in BALB/c mouse pneumonia model at 5 to 10 mg/kg, ip measured at 4 to 12 hrs; type: functional, organism-based; settings: dose 5-10 mg/kg, time 4-12 hrs
# [39] = test system: Staphylococcus aureus; assay: Antimicrobial activity against methicillin-resistant Staphylococcus aureus ATCC 33591 assessed as inhibition of microbial growth incubated for 18 hrs by broth microdilution analysis; type: functional, organism-based; settings: ATCC 33591, 18 h
# [40] = test system: Escherichia coli; assay: Antibacterial activity against gentamycin-resistant Escherichia coli ATCC 25922 assessed as reduction in bacterial growth incubated for 18 hrs by broth microdilution method; type: functional
Compound,Activity [1],fold change (FC) [2],fold change (FC) [3],Activity [4],IC50 at 24 h [5] [mg/L],Activity [6],Activity [7],Activity [8],Activity [9],MIC [11] [mg/L],Activity [12],fold change (FC) [13],Activity [14],Activity [16],inhibition [17],MIC [18] [mg/L],Activity [19],inhibition [21],Activity [23],Activity [24],also measured
CC[C@H](C)[C@@H]1NC(=O)[C@H](CCN)NC(=O)C[C@@H](C(C)C)OC(=O)[C@H]([C@@H](C)O)NC(=O)[C@H](CC(C)C)NC(=O)[C@@H](C(C)C)NC(=O)[C@H](CCN)NC(=O)[C@H](CC(C)C)NC(=O)[C@@H](Cc2ccccc2)NC(=O)[C@H](CCN)NC1=O,inactive,<=2,<=2,Active,29.2,Active,Tde,Active,Dose-Dependent Effect,8,Active,<=2,Active,Active,Dose-Dependent Effect,4,inactive,Active,Active,Active,Activity [10]: Active; Activity [15]: Active; Activity [20]: Active; Activity [22]: Active; Activity [25]: Active; Activity [26]: Active
CCCCCCC(=O)N[C@@H](CCN)C(=O)N[C@H](C(=O)N[C@@H](CCN)C(=O)N[C@H](Cc1ccccc1)C(=O)N[C@@H](CC(C)C)C(=O)N[C@@H](CCN)C(=O)N[C@@H](C(=O)N[C@@H](CC(C)C)C(=O)N[C@@H](Cc1ccc(O)cc1)C(N)=O)C(C)C)[C@@H](C)CC,inactive,<=2,<=2,Active,32.5,Active,Tde,,Dose-Dependent Effect,8,Active,<=2,Active,Active,Dose-Dependent Effect,2,inactive,Active,Active,Active,Activity [27]: Active; Activity [28]: Non-Toxic; Activity [10]: Active; Activity [29]: Active; Activity [30]: Active; Activity [31]: Active; MIC [32]: < 8 mg/L; HC10 [33]: 512 µg/mL; MIC [34]: 8 mg/L; MIC [35]: < 8 mg/L; LD50 at 168 h [36]: 32 mg/kg; Activity [22]: Active; Activity [37]: Active; Activity [38]: Active; EC50 [39]: 4.65 mg/L; MIC [40]: 4 mg/L
CCCCCCCC(=O)N[C@@H](CCN)C(=O)N[C@H](C(=O)N[C@@H](CCN)C(=O)N[C@H](Cc1ccccc1)C(=O)N[C@@H](CC(C)C)C(=O)N[C@@H](CCN)C(=O)N[C@@H](C(=O)N[C@@H](CC(C)C)C(=O)N[C@@H](Cc1ccc(O)cc1)C(N)=O)C(C)C)[C@@H](C)CC,inactive,<=2,<=2,Active,24.2,Active,Tde,Active,Dose-Dependent Effect,4,Active,<=2,Active,Active,Dose-Dependent Effect,2,inactive,Active,Active,Active,"Activity [27]: Active; Activity [28]: Non-Toxic; Activity [29]: Active; Activity [30]: Active; Activity [15]: Active; Activity [31]: Active; MIC [32]: < 8 mg/L; HC10 [33]: 128 µg/mL; MIC [34]: 8 mg/L; Activity [20]: Active; MIC [35]: < 8 mg/L; LD50 at 168 h [36]: 33.6 mg/kg; LD ([36]; ip, 168 h): 80 mg/kg; Activity [37]: Active; Activity [38]: Active; EC50 [39]: 2.99 mg/L; Activity [25]: Active; MIC [40]: 2 mg/L; Activity [26]: Active"
